Experimental findings from US9884040B2, “Desethylamiodarone for use in cancer treatment” (PÉCSI TUDOMÁNYEGYETEM, priority 2015, dated 2018) are described below.

Assay [1] has as its system HeLa human cervix adenocarcinoma cell line. Put plainly: Colony formation assay, HeLa. The assay is classed as cell-based. To be noted: one week; 1, 1.5, 2, 2.5 or 3 μM. The protocol: Cells were trypsinized and plated in triplicate into 6-well plates at 500 cells/well. Cells were treated with different concentration of Dea. After 7 days of incubation, cells were washed and stained with Coomassie-blue, and the colonies containing more than 50 cells were counted. The number of colonies were determined and normalized to the number of colonies in controls. To assess the recovery ability of cells that survived treatment, long-term (7 days) colony formation assay was performed. […] HeLa cells were incubated with the indicated concentrations of desethylamiodarone (1, 1.5, 2, 2.5 or 3 μM for one week and cell colonies were fixed, stained and counted. (A-B) Data are expressed as the mean±SD of ≧3 experiments; a p<0.01 is considered statistically significant The data shown on FIG. 8 provide evidence that DEA can be useful to cervix carcinoma.

The subject of another assay is GSK-3β. Put plainly: Western blot of GSK-3β phosphorylation. It is filed as cell-based, human. To be noted: 5-10-15 μM, 6 hours; T24, B16F10 cell lines. The protocol: (§1) 10^6 cells were seeded into regular plates and treated as for the cell viability assay. Cells were harvested at intervals in a chilled lysis buffer containing 0.5 mM sodium-metavanadate, 1 mM ethylenediaminetetraacetic acid (EDTA) and protease inhibitor cocktail in phosphate-buffered saline (PBS). Probes were boiled and subjected to 10% sodium dodecyl sulphate polyacrylamide gel electrophoresis then transferred to nitrocellulose membranes. The membranes were blocked in 5% low fat milk for 1.5 h at room temperature then exposed to primary antibodies at 4° C. overnight in blocking solution. Appropriate horseradish peroxidase-conjugated secondary antibodies were used at a 1:5000 dilution (anti-mouse and anti-rabbit IgGs; Sigma-Aldrich, Steinheim, Germany) and visualized by enhanced chemiluminescence (Amersham Biosciences, Piscataway, N.J., USA). All experiments were repeated 3 times.
To determine the downstream consequences of DEA treatment, we examined the phosphorylation status of AKT (protein kinase B), GSK-3β and p42/44 mitogen-activated protein kinase (MAPK) (ERK1/2) by immunoblotting in T24 (human urinary bladder carcinoma), B16F10 (mice melanoma) cell lines. Cells were cultured in the presence of 5-10-15 μM DEA for 6 hours. The cells were prepared and western blot analysis was carried out to perform both phosphorylated and non-phosphorylated forms of the previously listed proteins. […]

Assay [2] relates to T24 human bladder cancer cell line. Put plainly: Radiotherapy plus DEA, colony formation, T24. It is filed as cell-based. Particulars: 1Gy or 2Gy single dose alone or with 500 nM-3 μM DEA. The protocol: Cells were trypsinized and plated in triplicate into 6-well plates at 500 cells/well. Cells were treated with different concentration of DEA and irradiated with a dose of 1.0 and 2.0 Grays. A telecobalt (Therathron 780 C) external irradiation equipment (average photon energy of 1.25 MeV) will be applied for irradiating cells. After 7 days of incubation, cells were washed and stained with Coomassie-blue, and the colonies containing more than 50 cells were counted. The number of colonies were determined and normalized to the number of colonies in controls.
To examine the effects of a DEA on the effectiveness of radiotherapy the cells were treated with 1Gy or 2Gy single dose irradiation alone or combined with 500 nM-3 μM DEA.
The cells were treated with 1Gy or 2Gy single dose irradiation alone or combined with 500 nM-3 μM DEA. Untreated cells served as controls. The results are mean±SEM of 3 independent experiments performed in at least quadruplicate. P<0.05 compared to the corresponding control group.

In a further assay the test system is BMI1. Put plainly: Western blot of BMI1 expression in T24 cells. Particulars: T24 cells, 5, 10 and 15 μM, 24 h. The assay is classed as cell-based, human. On the procedure: as §1
T24 cells were exposed to 5, 10 and 15 μM of DEA for 24 h intervals. Equal amounts of lysate protein were subjected to gel electrophoresis. GAPDH was used as loading control. Results are presented as representative immunoblots (top panel) and densitometric analysis of Western blots in bar diagrams (bottom graph). Data are expressed as the mean±1 SD, n=3 and presented as fold difference from control (medium). Significant difference from control: *p<0.05.
A general note: Immunoblotting shows a protein as a band on a membrane.

Assay [3] concerns MCF 7 breast cancer cell line. In words: MTT cell viability assay, MCF 7. It is filed as cell-based. Particulars: increasing concentrations, 24, 48 and 72 hours. On the procedure: (§2) The cells were seeded into 96-well plates at a starting density of 10^4 cells per well and cultured overnight before DEA was added to the medium for 24 h and 48 h. The medium was changed to a fresh one containing 0.5% of 3-[4,5-dimethylthiazol-2-yl]-2,5-diphenyl-tetrazolium bromide (MTT+) for an additional 3 hours, then the MTT+ reaction was terminated by adding HCl to 10 mM final concentration. The amount of blue formazan dye formed from MTT+ was proportional to the number of live cells, and was determined with an Anthos Labtech 2010 ELISA reader at 550 nm. All experiments were run in at least 4 replicates and repeated 3 times.
MCF 7 cells were exposed to increasing concentrations of DEA for 24, 48 and 72 hours. Viability of the cells was detected by the MTT method. Untreated cells served as controls.
(In general: Tetrazolium assays rely on reduction of a dye to a coloured formazan, in cell work by metabolically active cells.)

Assay [4] relates to 4T1 (mouse mammary carcinoma) cells. In words: MTT cell viability assay, 4T1. It is filed as cell-based. Particulars: 24 h and 48 h; 2.5, 5, 7.5 or 10 μM; vs untreated control. The protocol: The cells were seeded into 96-well plates at a starting density of 10^4 cells per well and cultured overnight before DEA was added to the medium for 24 h and 48 h. […] The amount of blue formazan dye formed from MTT+ was proportional to the number of live cells, and was determined with an Anthos Labtech 2010 ELISA reader at 550 nm. All experiments were run in at least 4 replicates and repeated 3 times. The effect of desethylamiodarone was measured in T24 (human urinary bladder carcinoma), A549 (human lung adenocarcinoma epithelial), B16F10 (mice melanoma), HeLa (human cervix adenocarcinoma), 4T1 (mouse mammary carcinoma) cell lines. Cells were treated with increasing concentrations of desethylamiodarone for 24 and 48 h. Cell growth was assessed by measuring metabolic activity, which reflects viability in the MTT-test in the course of 24 h, 48 h of continued exposure to desethylamiorarone. The untreated cells served as negative controls. The viability of the cells, was lower in all DEA-treated than in the control group, with the difference being statistically significant. […] 4T1 cells were incubated with the indicated concentrations (2.5, 5, 7.5 or 10 μM) of desethylamiodarone for 24 h and 48 h and cell viability was measured by MTT assay (filled bars). Untreated cells served as controls. Data represent means±S.E.M. of three independent experiments, each running in four replicates.

Assay [5] deals with A549 (human lung adenocarcinoma epithelial) cells. Put plainly: MTT cell viability assay, A549. It is filed as cell-based. Particulars: increasing concentrations, 24 and 48 h. The protocol:
as §2
The effect of desethylamiodarone was measured in T24 (human urinary bladder carcinoma), A549 (human lung adenocarcinoma epithelial), B16F10 (mice melanoma), HeLa (human cervix adenocarcinoma), 4T1 (mouse mammary carcinoma) cell lines. Cells were treated with increasing concentrations of desethylamiodarone for 24 and 48 h. Cell growth was assessed by measuring metabolic activity, which reflects viability in the MTT-test in the course of 24 h, 48 h of continued exposure to desethylamiorarone. The untreated cells served as negative controls. The viability of the cells, was lower in all DEA-treated than in the control group, with the difference being statistically significant.

As to `CCCCc1oc2ccccc2c1C(=O)c1cc(I)c(OCCNCC)c(I)c1` [DEA, (2-butyl-3-benzofuranyl)[4-[2-(ethylamino)ethoxy]-3,5-diiodophenyl]-methanone], the “Colony formation, HeLa” value in assay [1] is “significant decrease in the number and the size of colonies”. Moreover, in the assay with GSK-3β, the GSK-3β phosphorylation entry is on record as “decreased the phosphorylation of GSK-3β”. Further, in assay [2], the “Radiosensitization, colony formation, T24” value is “sensitize bladder cancer to irradiation”. In the assay with BMI1, the BMI1 expression entry is “significantly suppresses BMI1 expression”. Also, in assay [3], the “Viability of MCF 7 cells (MTT)” value is given as “induces cell death”. For the same compound, the “Viability of 4T1 cells (MTT)” value in assay [4] is “Significantly different from control group at p<0.05”. The “Viability of A549 cells (MTT)” value in assay [5] is “significantly inhibited the viability”.
